What all share (assay type): cell-based
One series relates to NF-κB. In words: Measurement of NF-κB activation using THP1-Blue NF-κB cells (SEAP reporter, LPS as primary stimulus). To be noted: for activity at 5 µM / NF-κB % Activation: compound 5 μM + LPS, 20 hour incubation, two point normalized: compound 1 + LPS = 200%, LPS = 100%, mean; for NF-κB activity (in words): with LPS. The method in brief:
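THP1-Blue NF-κB cells (10^5/well, RPMI + 10% FBS) were co-treated with LPS 10 μg/mL and compound 5 μM (final, […]) for 20 h. Supernatant SEAP was read by QuantiBlue colorimetry at 630 nm. Two-point normalization set LPS alone to 100% and compound 1+LPS to 200%.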

The test system of the next series is THP-1 cells. In words: Cell viability assay (MTT). To be noted: for MTT % Viability: compound 5 μM, 18 hours incubation, normalized to DMSO as 100%, mean. The method in brief: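 Cells at 10^5/well in RPMI with 10% FBS were exposed to compound at 5 μM final (0.05% DMSO) for 18 h. MTT (0.5 mg/mL) then added for 4-6 h, cells lysed overnight in SDS/HCl, absorbance read at 570 nm against 650 nm reference.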

For another series, the system named is ISRE. The experiment in a line: Measurement of ISRE activity in ISRE-bla THP-1 cells (FRET, IFN-α as primary stimulus). To be noted: for activity at 5 µM: Homo sapiens, THP-1, read-out: ISRE % Activation; for activity at 5 µM / ISRE % Activation: compound 5 μM + IFN-α 100 U/mL, 16 hours, two point normalized: compound 1 + IFN-α = 200%, IFN-α = 100%, mean; for ISRE activity (in words): with IFN-α. The procedure, abridged: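 Cells at 5×10^4/well in RPMI with 10% dialyzed FBS, treated with compound at 5 μM (0.05% DMSO) plus IFN-α at 100 U/mL (final) for 16 h. CCF4-AM substrate added for 3 h at room temperature. Background-subtracted 465/535 nm emission ratio, 2-point normalized: IFN-α alone 100%, compound 1+IFN-α 200%.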

The subject of another series is NF-κB and ISRE. In words: NF-κB and ISRE reporter assays (primary screens), statements in words for both assays. To be noted: with LPS or IFN-α as primary stimulus; compared to compound 1. The method, then: THP1-Blue™ NF-κB cells were plated in 96-well plates at 10^5 cells/well in 100 μl RPMI supplemented with 10% fetal bovine serum (FBS, Omega Scientific, Inc., Tarzana, Calif.), 100 U/mL penicillin, 100 μg/ml streptomycin (Thermo Fisher Scientific) and Normocin (Invivogen). LPS was prepared in assay medium at a concentration of 20 μg/mL. Tested compounds were dissolved in DMSO at 1 mM as a stock solution and were further diluted in the LPS solution to a final concentration of 10 μM. 100 μL of this solution was then transferred to the plated cells to obtain a final concentration of LPS at 10 μg/mL and compound at 5 μM ([…]). The culture supernatants were harvested after a 20 hour incubation period, SEAP activity in the culture supernatants was determined by a colorimetric assay using QuantiBlue (Invivogen). Plate absorbance was read at 630 nm using a Tecan Infinite M200 plate reader (Männedorf, Switzerland). The SEAP concentration was directly proportional to NF-κB activity, which was 2-point normalized to yield activity of compound 1+LPS as 200% and activity for LPS as 100%.
ISRE-bla THP-1 cells were plated in 96-well plates at 5×10^4 cells/well in 50 μl RPMI supplemented with 10% dialyzed FBS (Atlanta Biologicals, Inc., GA), 0.1 mM nonessential amino acids, 1 mM sodium pyruvate, 100 U/mL penicillin and 100 μg/ml streptomycin. Type I IFN-α (R&D Systems, #11200-2) solution was prepared in assay medium at a concentration of 200 U/mL Tested compounds were dissolved in DMSO at 1 mM and were further diluted in the IFN-α solution to a final concentration of 10 μM. 50 μL of this solution was then transferred to the plated cells to obtain a final concentration of IFN-α at 100 U/mL and compound at 5 μM ([…]), The cells were incubated for 16 hours, after which 20 μL of 6×LiveBLAzer™ FRET B/G Substrate (CCF4-AM) mixture (prepared according to the manufacturer's instructions) was added to each well, Plates were incubated at room temperature in the dark for 3 hours. Fluorescence was measured on a Tecan Infinite M200 plate reader at an excitation wavelength of 405 nm, and emission wavelengths of 465 nm and 535 nm. Background values (cell free wells at the same fluorescence wavelength) were subtracted from the raw fluorescence intensity values and the emission ratios were calculated as the ratio of background subtracted fluorescence intensities at 465 nm to background subtracted fluorescence intensities at 535 nm. The ISRE activity values for these compounds were 2-point normalized to yield activity of compound 1+IFN-α as 200% and activity for IFN-α as 100%.
Measurement of NF-κB Activation Using THP1-Blue NF-κB Cells. THP1-Blue NF-κB cells were plated in 96-well plates at 10^5 cells/well in 100 μL of RPMI supplemented with 10% fetal bovine serum (FBS, Omega Scientific, Inc., Tarzana, Calif.), 100 U/mL penicillin, 100 μg/mL streptomycin (Thermo Fisher Scientific), and Normocin (Invivogen). LPS was prepared in assay medium at a concentration of 20 μg/mL. Tested compounds were dissolved in DMSO at 1 mM as a stock solution and were further diluted in the LPS solution to a final concentration of 10 μM. 100 μL of this solution was then transferred to the plated cells to obtain a final concentration of LPS at 10 μg/mL and compound at 5 μM ([…]). The culture supernatants were harvested after a 20 hours incubation period. SEAP activity in the culture supernatants was determined by a colorimetric assay using QuantiBlue (Invivogen). Plate absorbance was read at 630 nm using a Tecan Infinite M200 plate reader (Mannedorf, Switzerland). The SEAP concentration was directly proportional to NF-κB activity, which was two-point normalized to yield activity of compound 1+LPS as 200% and activity for LPS as 100%.
Measurement of ISRE Activity in ISRE-bla THP-1 Cells. […]
Background: Reporter assays use an easily measured gene product as a stand-in for the process of interest.

“Also recorded” adds a separate entry of the source.

In the case of `CCOc1ccc(S(=O)(=O)Nc2cc(OC)c(Cl)cc2OC)cc1Br` [Compound 25, 3-Bromo-N-(4-chloro-2,5-dimethoxyphenyl)-4-ethoxybenzenesulfonamide], the activity at 5 µM with NF-κB was 87%; in the series on ISRE, 101%. Also, in the series on THP-1 cells, the “MTT % Viability” value is 85.0%. In addition, the “activity in NF-κB and ISRE assays (in words)” value with NF-κB and ISRE is “inactive”.

With `COc1cc(NS(=O)(=O)c2ccc(C(N)=O)cc2)c(OC)cc1Cl` [Compound 27, 4-(N-(4-chloro-2,5-dimethoxyphenyl)sulfamoyl)benzamide], the figures for the activity at 5 µM in the series on NF-κB and in the series on ISRE were 103% and 94%, respectively. Also, the “MTT % Viability” value in the series with THP-1 cells was 91.0%. In addition, the “activity in NF-κB and ISRE assays (in words)” value with NF-κB and ISRE is on record as “lost activity”.

Consider `CCOC(=O)c1ccc(S(=O)(=O)Nc2cc(OC)c(Cl)cc2OC)cc1` [Compound 29, Ethyl 4-(N-(4-chloro-2,5-dimethoxyphenyl)sulfamoyl)benzoate], for which the activity at 5 µM in the series with NF-κB is 189%; in the series with ISRE, 169%. In the series with THP-1 cells, the “MTT % Viability” value worked out at 70.8%. The “activity in NF-κB and ISRE assays (in words)” value in the series with NF-κB and ISRE was “retained partial activity”.

In the case of `CNC(=O)c1ccc(S(=O)(=O)Nc2cc(OC)c(Cl)cc2OC)cc1` [Compound 30, 4-(N-(4-chloro-2,5-dimethoxyphenyl)sulfamoyl)-N-methylbenzamide], the activity at 5 µM in the series on NF-κB is 103%; with ISRE, 105%. Also, in the series on THP-1 cells, the “MTT % Viability” value is given as 77.0%. The “activity in NF-κB and ISRE assays (in words)” value with NF-κB and ISRE is “completely inactive”.

Regarding `CCOc1ccc(S(=O)(=O)N(c2cc(OC)c(Cl)cc2OC)C(C)C)cc1` [Compound 40, N-(4-chloro-2,5-dimethoxyphenyl)-4-ethoxy-N-isopropylbenzenesulfonamide], in the series with NF-κB, the activity at 5 µM came out at 76% and the “NF-κB activity (in words)” value was “eliminated the NF-κB activity; also recorded: loss of NF-κB activity”. The “MTT % Viability” value in the series on THP-1 cells came to 103.2%. For the same compound, in the series with ISRE, the activity at 5 µM came to 169% and the “ISRE activity (in words)” value was “retaining ISRE activity”. Further, the “activity in NF-κB and ISRE assays (in words)” value in the series with NF-κB and ISRE is “inactive”.

Consider `CCOc1ccc(S(=O)(=O)N(CC(C)C)c2cc(OC)c(Cl)cc2OC)cc1` [Compound 41, N-(4-chloro-2,5-dimethoxyphenyl)-4-ethoxy-N-isobutylbenzenesulfonamide], for which the activity at 5 µM was found to be 175% in the series on NF-κB and 193% with ISRE. Besides, in the series on THP-1 cells, the “MTT % Viability” value was found to be 76.7%. Also, the “activity in NF-κB and ISRE assays (in words)” value in the series with NF-κB and ISRE is “regained the activity in both the NF-κB and ISRE assays”.

`C#CCOCCOCCOCCN(c1cc(OC)c(Cl)cc1OC)S(=O)(=O)c1ccc(OCC)cc1` [Compound 45, N-(4-chloro-2,5-dimethoxyphenyl)-4-ethoxy-N-(2-(2-(2-(prop-2-yn-1-yloxy)ethoxy)ethoxy)ethyl)benzenesulfonamide]: the activity at 5 µM in the series on NF-κB is 107%; with ISRE, 130%. Further, the “MTT % Viability” value in the series on THP-1 cells amounted to 73.7%. Besides, the “activity in NF-κB and ISRE assays (in words)” value with NF-κB and ISRE is on record as “too long to retain activity”.

In the case of `CCOc1ccc(S(=O)(=O)N(Cc2ccccc2)c2cc(OC)c(Cl)cc2OC)cc1` [Compound 46, N-benzyl-N-(4-chloro-2,5-dimethoxyphenyl)-4-ethoxybenzenesulfonamide], the values for the activity at 5 µM in the series on NF-κB and in the series on ISRE were 181% and 159%, respectively. In the series on THP-1 cells, the “MTT % Viability” value is listed as 71.7%. Further, the “activity in NF-κB and ISRE assays (in words)” value in the series with NF-κB and ISRE was “potent analogs”.

With `CCOc1ccc(S(=O)(=O)N(CCc2ccccc2)c2cc(OC)c(Cl)cc2OC)cc1` [Compound 47, N-(4-chloro-2,5-dimethoxyphenyl)-4-ethoxy-N-phenethylbenzenesulfonamide], the activity at 5 µM in the series with NF-κB worked out at 131%; in the series with ISRE, 141%. The “toxicity in MTT assays (in words)” value in the series with THP-1 cells (5 μM) is “somewhat higher toxicity”. Moreover, in the series on THP-1 cells, the “MTT % Viability” value is given as 44%. In the series with NF-κB and ISRE, the “activity in NF-κB and ISRE assays (in words)” value is given as “potent analogs”.

Take `CCOC(=O)CN(c1cc(OC)c(Cl)cc1OC)S(=O)(=O)c1ccc(OCC)cc1` [Compound 49, Ethyl N-(4-chloro-2,5-dimethoxyphenyl)-N-((4-ethoxyphenyl)sulfonyl)glycinate]: the results for the activity at 5 µM with NF-κB and in the series with ISRE were 202% and 184%, respectively. Moreover, the “MTT % Viability” value in the series with THP-1 cells worked out at 81.4%. Besides, the “activity in NF-κB and ISRE assays (in words)” value in the series on NF-κB and ISRE was “retained dual NF-κB and ISRE activities”.

For the compound `CCOc1ccc(S(=O)(=O)N(CCCO)c2cc(OC)c(Cl)cc2OC)cc1` [Compound 51, N-(4-chloro-2,5-dimethoxyphenyl)-4-ethoxy-N-(3-hydroxypropyl) benzenesulfonamide], the “NF-κB % Activation” value with NF-κB amounted to 219%. Further, the “MTT % Viability” value with THP-1 cells turned out to be 68.5%. Also, in the series on ISRE, the “ISRE % Activation” value is 178%. The “activity in NF-κB and ISRE assays (in words)” value in the series with NF-κB and ISRE is listed as “retained activity in both the assays”.

Turning to `CCOc1ccc(S(=O)(=O)N(CCCNC(=O)OC(C)(C)C)c2cc(OC)c(Cl)cc2OC)cc1` [Compound 52, tert-Butyl (3-((N-(4-Chloro-2,5-dimethoxyphenyl)-4-ethoxyphenyl)sulfonamido)propyl)carbamate], in the series with NF-κB, the “NF-κB % Activation” value is reported as 134%. In the series on THP-1 cells, the “MTT % Viability” value was determined as 75.6%. Moreover, the “ISRE % Activation” value in the series on ISRE is 140%. Moreover, in the series with NF-κB and ISRE, the “activity in NF-κB and ISRE assays (in words)” value is given as “reduction in activity”.

`CCNC(=O)CCCN(c1cc(OC)c(Cl)cc1OC)S(=O)(=O)c1ccc(OCC)cc1` [Compound 54, 4-((N-(4-chloro-2,5-dimethoxyphenyl)-4-ethoxyphenyl)sulfonamido)-N-ethylbutanamide]: in the series on NF-κB, the “NF-κB % Activation” value came to 206% and the “NF-κB activity (in words)” value is recorded as “retaining the NF-κB activity”. In addition, the “MTT % Viability” value with THP-1 cells came to 78.2%. Also, in the series on ISRE, the “ISRE % Activation” value was 137% and the “ISRE activity (in words)” value is recorded as “reduction in ISRE activity”. In the series on NF-κB and ISRE, the “activity in NF-κB and ISRE assays (in words)” value was “retained activity”.

(Values after US20220305121A1, “N-ARYL SULFONAMIDE DERIVATIVES AS VACCINE ADJUVANT” (The Regents of the University of California, priority 2019, published 2022).)
